# Assays:
# [1] = tested on: rats with ligated L5 and L6 spinal nerves; experiment: rat spinal nerve ligation allodynia model (chronic pain); assay type: in vivo; details: for reduction of the response to tactile stimuli that indicate tactile allodynia: 30 minutes after drug, von Frey hairs
# Description: (§1) The physiological activity of these compounds was tested using four models: a rat locomotor model to assess sedation, an assay of cardiovascular activity in monkeys, a rat thermal paw withdrawal assay (Dirig et al., J. Neurosci. Methods 76:183-191 (1997) to test the alleviation of acute pain, and the rat spinal nerve ligation allodynia model (Kim and Chung, Pain 50:355-363 (1992) to assess the alleviation of neuropathic pain and central sensitization typical of chronic pain. As is known to those of skill in the art, these tests are established pharmacological methods for determining sedation, cardiovascular effects, acute pain and chronic pain, respectively, of pharmaceutical agents.
# A model for chronic pain (in particular peripheral neuropathy such as causalgia) involves the surgical ligation of the L5 (and optionally the L6) spinal nerves on one side in experimental animals. Rats recovering from the surgery gain weight and display a level of general activity similar to that of normal rats. However, these rats develop abnormalities of the foot, wherein the hindpaw is moderately everted and the toes are held together. More importantly, the hindpaw on the side affected by the surgery appears to become sensitive to pain from low-threshold mechanical stimuli, such as that producing a faint sensation of touch in a human, within about 1 week following surgery. This sensitivity to normally non-painful touch is called “tactile allodynia” and lasts for at least two months. The response includes lifting the affected hindpaw to escape from the stimulus, licking the paw and holding it in the air for many seconds. None of these responses is normally seen in the control group.
# Rats are anesthetized before surgery. The surgical site is shaved and prepared either with betadine or Novacaine. Incision is made from the thoracic vertebra Xlll down toward the sacrum. Muscle tissue is separated from the spinal vertebra (left side) at the L4-S2 levels. The L6 vertebra is located and the transverse process is carefully removed with a small rongeur to expose the L4-L6 spinal nerves. The L5 and L6 spinal nerves are isolated and tightly ligated with 6-0 silk thread. The same procedure is done on the right side as a control, except no ligation of the spinal nerves is performed.
# A complete hemostasis is confirmed, then the wounds are sutured. A small amount of antibiotic ointment is applied to the incised area, and the rat is transferred to the recovery plastic cage under a regulated heat-temperature lamp. On the day of the experiment, at least seven days after the surgery, six rats per test group are administered the test drugs by intraperitoneal (i.p.) injection or oral gavage. For i.p. injection, the compounds are formulated in approximately 50% DMSO and given in a volume of 1 ml/kg body weight. FORMULA 2 was tested at doses ranging between 1 and 300 μg /kg, FORMULA 3 was tested at doses between 0.1 and 3 mg/kg and FORMULA 4 was tested at doses of 0.3 and 3 mg/kg. FORMULA 2 was also administered by oral gavage at doses of 0.1, 0.3 and 1 mg/kg body weight to 24-hour fasted rats. A volume equal to 1 ml/kg body weight of an appropriate concentration (i.e. 1 mg/ml for a 1 mg/kg dose) of FORMULA 2 formulated in approximately 50% DMSO was injected using an 18-gauge, 3-inch gavage needle that is slowly inserted through the esophagus into the stomach.
# Tactile allodynia is measured prior to and 30 minutes after drug administration using von Frey hairs that are a series of fine hairs with incremental differences in stiffness. Rats are placed in a plastic cage with a wire mesh bottom and allowed to acclimate for approximately 30 minutes. The von Frey hairs are applied perpendicularly through the mesh to the mid-plantar region of the rats' hindpaw with sufficient force to cause slight buckling and held for 6-8 seconds. The applied force has been calculated to range from 0.41 to 15.1 grams. If the paw is sharply withdrawn, it is considered a positive response. […]
# [2] = tested on: patient two; experiment: treatment of visceral pain in a colon cancer patient; assay type: in vivo, human; details: intravenous infusion twice daily, after two days
# From the text: patient two suffering from colon cancer and undergoing chemotherapy experiences severe visceral pain associated with this primary condition. Treatment of this pain with opiates have been ineffective to provide substantial relief.
# The patient is given a therapeutic amount of FORMULA 3 by intravenous infusion in a pharmaceutically acceptable vehicle. The treatment is given twice daily.
# Under the same facts as Example 7, except the patient is given FORMULA 2 instead of FORMULA 3.
# [3] = tested on: Sprague-Dawley rats; experiment: rat locomotor model to assess sedation; assay type: in vivo; details: 1 mg/kg i.p., 30 minutes after injection, vs vehicle controls
# Description: as §1
# To test sedation, six male Sprague-Dawley rats were given up to 3 mg/kg of each compound in a saline or DMSO vehicle by intraperitoneal injection (i.p.). Sedation was graded 30 minutes following administration of the drug by monitoring locomotor skills as follows.
# The Sprague-Dawley rats are weighed and 1 ml/kg body weight of an appropriate concentration (i.e. 3 mg/ml for a final dose of 3 mg/kg) drug solution is injected intraperitoneally. FORMULA 3 is formulated in approximately 10% DMSO and FORMULA 2 and FORMULA 4 are formulated in 50% DMSO. The results are compared to 29 historical controls that were injected with 1 ml/kg saline or 50% DMSO. Rat activity is then determined 30 minutes after injection of the drug solution. Rats are placed in a dark covered chamber and a digicom analyzer (Omnitech Electronic) quantitates their exploratory behavior for a five-minute period. The machine records each time the rat interrupts an array of 32 photoelectric beams in the X and Y orientation.
# [4] = tested on: patient one; experiment: treatment of allodynia resulting from shingles in a patient; assay type: in vivo, human; details: oral dose in capsule form, two days' treatment
# From the text: person one in generally good physical condition suffers from serious pain to their upper body due caused by contact of their skin with their clothing. The patient is unable to wear clothing on their upper body without severe pain.
# The patient is given a therapeutically effective oral dose of FORMULA 3 in capsule form as needed for the treatment of pain.
# Same facts as in Example 5, except the patient is given a therapeutically effective oral dose of FORMULA 2 in capsule form as needed for the treatment of pain.
Compound,reduction of the response to tactile stimuli that indicate tactile allodynia [1],percent reversal of allodynia ([1]; i.p. 10 μg/kg) [%],percent reversal of allodynia ([1]; i.p. 30 μg/kg) [%],percent reversal of allodynia ([1]; i.p. 100 μg/kg) [%],percent reversal of allodynia ([1]; i.p. 300 μg/kg) [%],percent reversal of allodynia ([1]; i.p. dose of 3 μg/kg) [%],"alleviation of allodynic pain ([1]; oral doses ranging from 0.1 to 1 mg/kg, 24-hour fasted rats)","visceral pain, patient report [2]",reduction in the exploratory activity of the rats (sedation) [3],"allodynia resulting from shingles, patient report [4]",percent reversal of allodynic pain ([1]; i.p. 1 mg/kg) [%],percent reversal of allodynic pain ([1]; i.p. 3 mg/kg) [%],percent reversal of allodynic pain ([1]; i.p. dose of 0.3 mg/kg) [%]
"OCCNC(=S)NCc1cccc(Cl)c1F [FORMULA 2, 1-(3-chloro-2-fluorobenzyl)-3-(2-hydroxyethyl)-thiourea]",able to reduce the response to the tactile stimuli,85,90,95,92,55,82-86%,significant alleviation,none of the compounds caused a statistically significant reduction,markedly reduced,,,
OCCNC(=S)NCc1ccc(F)cc1 [FORMULA 3],able to reduce the response to the tactile stimuli,,,,,,,significant alleviation,none of the compounds caused a statistically significant reduction,markedly reduced,32,26,34

# Reference: patent publication US6545182B2, “Methods and compositions for modulating alpha adrenergic receptor activity” (Allergan Sales, Inc., priority 2000, dated 2003)
